Measurements reported in publication PMC5679075 (Nature, 2017).

Biological target: T1, LepI (Aspergillus flavus, UniProt B8NJH3)
T1 sequence (B8NJH3 1-387): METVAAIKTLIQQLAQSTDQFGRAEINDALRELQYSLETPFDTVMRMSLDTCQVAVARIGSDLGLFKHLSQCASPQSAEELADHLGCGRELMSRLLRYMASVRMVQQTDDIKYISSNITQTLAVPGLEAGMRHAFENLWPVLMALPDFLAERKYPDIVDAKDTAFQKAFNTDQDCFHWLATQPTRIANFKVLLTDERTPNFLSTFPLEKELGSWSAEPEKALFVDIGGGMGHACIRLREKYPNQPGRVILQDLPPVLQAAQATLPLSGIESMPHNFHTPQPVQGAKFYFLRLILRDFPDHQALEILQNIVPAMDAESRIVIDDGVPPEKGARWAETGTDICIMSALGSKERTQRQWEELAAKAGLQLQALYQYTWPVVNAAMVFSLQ
Test: HPLC time course, inhibition of retro-Claisen rearrangement
Assay type: biochemical
Conditions: read-out: % inhibition at 250 μM

Nc1ncnc2c1ncn2[C@@H]1O[C@H](CSCC[C@H](N)C(=O)O)[C@@H](O)[C@H]1O [SAH]
inhibition at 250 µM: > 90%
